± gives the standard deviation of the averaged measurements.
Key:
Test in all cases: level (log10 ratio to DMSO vehicle control); higher = higher biomarker level / cell amount than vehicle control
[1] = compound: FC(F)(F)COC(OCC(F)(F)F)OCC(F)(F)F [tris(Trifluoroethoxy)methane]; conditions: in DMSO
Description: (§1)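 BioMAP Diversity Plus panel of 12 human primary cell co-culture systems (3C, 4H, LPS, SAg, BT, BF4T, BE3C, CASM3C, HDF3CGF, KF3CT, MyoF, Mphg). Compounds were added 1 h before stimulation and left for 24 h (MyoF 48 h; BT 72 h for soluble read-outs or 6 d for IgG). Biomarkers were read by ELISA, cytotoxicity by SRB, PBMC viability and proliferation by Alamar Blue. Each well value was divided by the mean of 8 DMSO control wells on the same plate and log10 transformed; duplicate blinded samples were tested at 4 concentrations.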

[2] = compound: OCCCC(F)(F)C(F)(F)C(F)(F)C(F)(F)C(F)(F)C(F)(F)C(F)(F)C(F)(F)F [3-(Perfluorooctyl)propanol]; conditions: 6700 nM; in DMSO
Description: as §1

Tetrafluorosuccinic acid = compound: O=C(O)C(F)(F)C(F)(F)C(=O)O [Tetrafluorosuccinic acid]; conditions: in DMSO
Description: as §1

[3] = compound: OCC(F)(F)C(F)(F)C(F)(F)C(F)(F)C(F)(F)C(F)(F)C(F)(F)C(F)(F)C(F)(F)C(F)(F)C(F)(F)F [11:1 Fluorotelomer alcohol]; conditions: in DMSO
Description: as §1

[4] = compound: OCC(F)(F)C(F)(F)C(F)(F)C(F)(F)C(F)(F)C(F)(F)F [6:1 Fluorotelomer alcohol]; conditions: in DMSO
Description: as §1

[5] = compound: FC(F)(F)C(F)(F)C(F)(F)C(F)(F)CCI [1H,1H,2H,2H-Perfluorohexyl iodide]; conditions: in DMSO
Description: as §1

Methotrexate = compound: CN(Cc1cnc2nc(N)nc(N)c2n1)c1ccc(C(=O)N[C@@H](CCC(=O)O)C(=O)O)cc1 [Methotrexate]; conditions: in DMSO
Description: as §1

| Test System | level (log10) ([1]; 6700 nM) | level (log10) ([1]; 20000 nM) | level (log10) ([1]; 60000 nM) | level (log10) [2] | level (log10) (Tetrafluorosuccinic acid; 6700 nM) | level (log10) (Tetrafluorosuccinic acid; 20000 nM) | level (log10) (Tetrafluorosuccinic acid; 60000 nM) | level (log10) ([3]; 1100 nM) | level (log10) ([3]; 3300 nM) | level (log10) ([3]; 10000 nM) | level (log10) ([4]; 6700 nM) | level (log10) ([4]; 20000 nM) | level (log10) ([4]; 60000 nM) | level (log10) ([5]; 6700 nM) | level (log10) ([5]; 20000 nM) | level (log10) ([5]; 60000 nM) | level (log10) (Methotrexate; 1500 nM) | level (log10) (Methotrexate; 4400 nM) | level (log10) (Methotrexate; 13000 nM) | level (log10) (Methotrexate; 40000 nM) |
| --- | --- | --- | --- | --- | --- | --- | --- | --- | --- | --- | --- | --- | --- | --- | --- | --- | --- | --- | --- | --- |
| BF4T:CCL2/MCP-1 | 0.0025 ± 0.023 | -0.0115 ± 0.032 | 0.019 ± 0.061 | -0.0265 ± 0.0092 | -0.007 ± 0.0028 | -0.0135 ± 0.0064 | -0.0215 ± 0.016 | 0.018 ± 0.042 | 0.0235 ± 0.021 | 0.031 ± 0.023 | 0.0155 ± 0.015 | -0.014 ± 0.028 | 0.0285 ± 0.015 | 0.013 ± 0.059 | 0.026 ± 0.065 | 0.0295 ± 0.13 | 0.0115 ± 0.022 | 0.0135 ± 0.0035 | -0.022 ± 0.0028 | 0.0055 ± 0.029 |
| LPS:M-CSF | 0.003 ± 0.0085 | 0.005 ± 0.0042 | -0.0005 ± 0.0092 | -0.073 ± 0.03 | -0.0255 ± 0.0078 | -0.018 ± 0.014 | 0.0335 ± 0.047 | -0.009 ± 0.018 | -0.054 ± 0.047 | -0.0825 ± 0.066 | 0.009 ± 0.038 | 0.0085 ± 0.05 | 0.0125 ± 0.023 | 0.002 ± 0.0042 | 0 ± 0.0099 | -0.0055 ± 0.028 | 0.0235 ± 0.005 | 0.0035 ± 0.019 | 0.0235 ± 0.0035 | -0.0065 ± 0.03 |
| SAg:PBMC Cytotoxicity | -0.0115 ± 0.0078 | 0.01 ± 0.017 | 0.0135 ± 0.022 | -0.003 ± 0.023 | -0.002 ± 0.048 | 0.0115 ± 0.013 | 0.039 ± 0.013 | -0.233 ± 0.016 | -0.266 ± 0.02 | -0.268 ± 0.076 | -0.014 ± 0.013 | -0.014 ± 0.0099 | -0.0295 ± 0.073 | 0.006 ± 0.03 | -0.0025 ± 0.03 | -0.093 ± 0.088 | -0.001 ± 0.017 | 0.0015 ± 0.023 | 0.011 ± 0.018 | 0.0005 ± 0.0035 |
| BF4T:MMP-3 | 0.014 ± 0.044 | 0.004 ± 0.041 | 0.006 ± 0.042 | 0.018 ± 0.03 | 0.0285 ± 0.012 | -0.008 ± 0.028 | 0.012 ± 0.0057 | 0.008 ± 0.0014 | 0.009 ± 0.0057 | 0.0435 ± 0.035 | -0.012 ± 0.018 | -0.0195 ± 0.0064 | -0.002 ± 0.021 | 0.018 ± 0.04 | 0.015 ± 0.047 | 0.049 ± 0.078 | 0.0045 ± 0.025 | -0.0285 ± 0.018 | -0.012 ± 0.031 | 0.015 ± 0.024 |
| 3C:HLA-DR | 0.014 ± 0.013 | 0.0065 ± 0.012 | 0.0205 ± 0.0035 | -0.03 ± 0.0028 | 0.0005 ± 0.025 | -0.0075 ± 0.0021 | -0.0045 ± 0.032 | -0.019 ± 0.0042 | -0.034 ± 0.011 | -0.04 ± 0.016 | 0.004 ± 0.011 | -0.003 ± 0.0028 | -0.0095 ± 0.0078 | -0.0005 ± 0.029 | -0.035 ± 0.04 | -0.0305 ± 0.04 | -0.014 ± 0.031 | -0.012 ± 0.038 | -0.013 ± 0.025 | -0.011 ± 0.03 |
| SAg:CD38 | -0.0135 ± 0.015 | -0.011 ± 0.0057 | -0.012 ± 0.02 | -0.017 ± 0.016 | -0.003 ± 0.027 | 0.001 ± 0.0028 | 0.006 ± 0.027 | -0.0115 ± 0.084 | -0.014 ± 0.073 | 0.0035 ± 0.042 | -0.0215 ± 0.088 | -0.0085 ± 0.12 | -0.018 ± 0.17 | 0.009 ± 0.021 | -0.007 ± 0.0071 | -0.005 ± 0.031 | 0.037 ± 0.0099 | -0.0175 ± 0.005 | 0.031 ± 0.0085 | 0.006 ± 0.028 |
| BT:sIL-2 | -0.0155 ± 0.016 | 0.0015 ± 0.021 | 0.029 ± 0.025 | -0.0245 ± 0.016 | -0.0195 ± 0.035 | 0.03 ± 0.083 | 0.0825 ± 0.13 | 0.108 ± 0.058 | 0.0255 ± 0.083 | -0.02 ± 0.073 | 0.0235 ± 0.028 | -0.012 ± 0.075 | -0.289 ± 0.081 | 0.0565 ± 0.029 | -0.0065 ± 0.0021 | -0.056 ± 0.057 | 0.0155 ± 0.016 | -0.0845 ± 0.11 | 0.0085 ± 0.035 | -0.075 ± 0.035 |
| BT:B cell Proliferation | -0.021 ± 0.021 | -0.005 ± 0.018 | -0.006 ± 0.073 | -0.0025 ± 0.0064 | -0.0055 ± 0.035 | 0.0075 ± 0.019 | 0.0285 ± 0.00071 | -0.103 ± 0.023 | -0.144 ± 0.026 | -0.44 ± 0.42 | -0.007 ± 0.013 | -0.009 ± 0.038 | -0.148 ± 0.1 | -0.0105 ± 0.00071 | -0.0085 ± 0.016 | -0.0005 ± 0.032 | -0.0915 ± 0.016 | -0.1 ± 0.0085 | -0.099 ± 0.0071 | -0.052 ± 0.037 |
| 4H:SRB | -0.0055 ± 0.0021 | -0.004 ± 0.0042 | -0.011 ± 0.017 | -0.0015 ± 0.00071 | -0.0005 ± 0.023 | 0.001 ± 0.0085 | -0.0185 ± 0.011 | -0.0105 ± 0.0092 | -0.0195 ± 0.0035 | -0.0005 ± 0.025 | -0.0125 ± 0.005 | -0.006 ± 0.0085 | -0.002 ± 0.014 | 0.0015 ± 0.0035 | -0.0045 ± 0.026 | 0.0005 ± 0.0078 | 0.0105 ± 0.0078 | -0.0075 ± 0.011 | 0.0035 ± 0.00071 | 0.007 ± 0.0014 |
| SAg:CXCL9/MIG | 0.0015 ± 0.018 | 0.011 ± 0.0042 | 0.014 ± 0.0028 | -0.0205 ± 0.0078 | -0.006 ± 0.0014 | 0.003 | 0.013 ± 0.0099 | -0.004 ± 0.03 | -0.0175 ± 0.035 | 0.012 ± 0.03 | -0.0025 ± 0.021 | -0.013 ± 0.018 | -0.0055 ± 0.0092 | -0.0015 ± 0.005 | -0.006 ± 0.0085 | 0.009 ± 0.0028 | 0.0095 ± 0.0035 | 0 ± 0.035 | 0.006 ± 0.034 | -0.003 ± 0.027 |
| LPS:IL-1alpha | -0.019 ± 0.014 | -0.015 ± 0.014 | -0.0095 ± 0.035 | -0.267 ± 0.065 | -0.0215 ± 0.021 | -0.0175 ± 0.0092 | -0.0015 ± 0.013 | -0.0655 ± 0.0092 | -0.14 ± 0.0035 | -0.144 ± 0.012 | -0.038 ± 0.03 | -0.015 ± 0.061 | -0.0105 ± 0.023 | -0.0045 ± 0.032 | -0.034 ± 0.047 | 0.051 ± 0.044 | -0.003 ± 0.024 | 0.003 ± 0.017 | 0.005 ± 0.031 | 0.0465 ± 0.077 |
| BF4T:IL-1alpha | -0.0065 ± 0.013 | -0.0115 ± 0.013 | 0.003 ± 0.0099 | -0.012 ± 0.0014 | 0.023 ± 0.02 | 0.0145 ± 0.025 | 0.0335 ± 0.016 | -0.016 ± 0.0014 | -0.0125 ± 0.013 | 0.0025 ± 0.0021 | -0.0005 ± 0.005 | 0.0035 ± 0.0021 | 0.0005 ± 0.011 | 0.001 ± 0.0071 | 0.0085 ± 0.0092 | 0.019 ± 0.024 | 0.0145 ± 0.00071 | -0.037 ± 0.0042 | -0.012 ± 0.031 | 0.0045 ± 0.0021 |
| 4H:CD87/uPAR | 0.0405 ± 0.07 | 0.0305 ± 0.052 | 0.0185 ± 0.064 | -0.0615 ± 0.025 | -0.0355 ± 0.025 | -0.043 ± 0.035 | -0.036 ± 0.089 | -0.0285 ± 0.037 | -0.0415 ± 0.028 | 0 ± 0.059 | -0.0195 ± 0.018 | 0.029 ± 0.011 | -0.175 ± 0.36 | -0.0115 ± 0.0021 | -0.0245 ± 0.022 | -0.0255 ± 0.0064 | 0.0245 ± 0.029 | -0.014 ± 0.031 | -0.0105 ± 0.033 | 0.0185 ± 0.03 |
| BF4T:CD54/ICAM-1 | -0.007 ± 0.017 | 0 ± 0.038 | -0.017 ± 0.017 | -0.007 ± 0.016 | -0.0145 ± 0.013 | -0.018 ± 0.0042 | -0.0295 ± 0.0021 | -0.0125 ± 0.005 | -0.015 ± 0.018 | -0.0015 ± 0.00071 | -0.0065 ± 0.023 | -0.01 ± 0.016 | -0.005 ± 0.018 | -0.0025 ± 0.0035 | -0.0095 ± 0.0021 | -0.002 ± 0.0057 | 0.001 ± 0.0099 | -0.0135 ± 0.019 | 0.009 ± 0.0085 | 0.0095 ± 0.011 |
